Results reported in PMC12114840, “Exploring the Anticancer Properties of 1,2,3-Triazole-Substituted Andrographolide Derivatives” (Pharmaceuticals, 2025).

How the values were obtained:
[1] = system: PANC-1 cells (pancreatic ductal adenocarcinoma); assay: Sulforhodamine B (SRB) antiproliferative assay, PANC-1; format: cell-based, human; conditions: Homo sapiens; PANC-1, 48 h, SRB; mean ± SEM of four to six independent experiments
Protocol: (§1) The antiproliferative properties of andrographolide and all prepared derivatives (2–26) were evaluated against a panel of different cancer cell lines, including human pancreatic ductal adenocarcinoma (PANC-1), colorectal adenocarcinoma (HCT116), melanoma (A375), breast adenocarcinoma (MCF-7) and a non-tumorigenic colon (CCD-18Co) cell line using the sulforhodamine B assay.
(§2) Human breast adenocarcinoma MCF-7, pancreatic ductal adenocarcinoma PANC-1, melanoma A375, and non-tumorigenic colon CCD-18Co cell lines were purchased from ATCC (Rockville, MD, USA). Human colorectal adenocarcinoma HCT116 cells were kindly provided by B. Vogelstein (The Johns Hopkins Kimmel Cancer Center, Baltimore, MD, USA). Tumor cells were routinely cultured in RPMI-1640 medium with UltraGlutamine from Biowest (VWR, Carnaxide, Portugal) supplemented with 10% fetal bovine serum (FBS) from Biowest (VWR, Carnaxide, Portugal), except for the PANC-1 cells, which were grown in DMEM (4.5 g/L glucose) with stable L-glutamine and sodium pyruvate and supplemented with 10% FBS. The non-tumorigenic CCD-18Co cells were cultured in EMEM (Lonza, VWR, Carnaxide, Portugal), supplemented with 10% FBS. All cells were incubated at 37 °C in a humidified atmosphere of 5% CO2. Routine mycoplasma testing was performed using the MycoAlert™ PLUS mycoplasma detection kit (Lonza).
(§3) For the evaluation of the compound effect on cell proliferation, human cell lines were seeded in 96-well plates at a density of 5.0 × 10^3 (HCT116, MCF-7, PANC-1, A375, and CCD-18Co) cells per well, for 24 h. Cells were then treated with serial dilutions of the compound (ranging from 0.63 to 30 µM), for an additional 48 h incubation period. The growth inhibitory effects were assessed by SRB assay, as described in [58], and the half-maximal inhibitory concentration (IC50 values) were determined for each cell line using the GraphPad Prism software version 7.0 (La Jolla, CA, USA). Culture medium containing a maximum of 0.05% dimethyl sulfoxide (DMSO) was used as negative control.

[2] = system: HCT116 cells (colorectal adenocarcinoma); assay: Sulforhodamine B (SRB) antiproliferative assay, HCT116; format: cell-based; conditions: Homo sapiens, HCT-116, HCT116, 48 h, mean ± SEM of four to six independent experiments
Protocol: as §1, §2, §3

[3] = system: A375 cells (melanoma); assay: Sulforhodamine B (SRB) antiproliferative assay, A375; format: cell-based; conditions: Homo sapiens, A-375, A375, 48 h, mean ± SEM of four to six independent experiments
Protocol: as §1, §2, §3

[4] = system: MCF-7 cells (breast adenocarcinoma); assay: Sulforhodamine B (SRB) antiproliferative assay, MCF-7; format: cell-based; conditions: Homo sapiens, MCF7, MCF-7, 48 h, mean ± SEM of four to six independent experiments
Protocol: as §1, §2, §3

[5] = system: CCD-18Co cells (non-tumorigenic colon); assay: Sulforhodamine B (SRB) antiproliferative assay, CCD-18Co; format: cell-based; conditions: Homo sapiens, CCD-18Co non-tumorigenic, 48 h, mean ± SEM of four to six independent experiments
Protocol: as §1, §2, §3

## C=C1CC[C@@H]2[C@](C)(COC(C)=O)[C@H](OC(C)=O)CC[C@@]2(C)[C@@H]1C[C@H](C1=CCOC1=O)n1cc(-c2ccc(OC)cc2)nn1 [Compound 16, (12R)-4-(4-methoxyphenyl)-1,2,3-triazole-3,19-diacetoxy-14-deoxy-andrographolide]
[1]
  IC50: 2.3 ± 0.2 µM
[2]
  IC50: 2.3 ± 0.9 µM
[3]
  IC50: 1.5 ± 0.2 µM
[4]
  IC50: 9.3 ± 0.1 µM
[5]
  IC50: 6.8 ± 1 µM

## C=C1CC[C@@H]2[C@](C)(COC(C)=O)[C@H](OC(C)=O)CC[C@@]2(C)[C@@H]1C[C@H](C1=CCOC1=O)n1cc(-c2ccncc2)nn1 [Compound 22, (12R)-4-(4-pyridine)-1,2,3-triazole-3,19-diacetoxy-14-deoxy-andrographolide]
[1]
  IC50: 5 ± 0.4 µM
[2]
  IC50: 1.6 ± 0.3 µM
[3]
  IC50: 1.3 ± 0.2 µM
[4]
  IC50: 5.9 ± 0.1 µM
[5]
  IC50: 3.2 ± 0.9 µM

## C=C1CC[C@@H]2[C@](C)(COC(C)=O)[C@H](OC(C)=O)CC[C@@]2(C)[C@@H]1C[C@H](C1=CCOC1=O)n1cc(-c2ccsc2)nn1 [Compound 25, (12R)-4-(3-thiophene)-1,2,3-triazole-3,19-diacetoxy-14-deoxy-andrographolide]
[1]
  IC50: 4.5 ± 2 µM
[2]
  IC50: 1.7 ± 0.3 µM
[3]
  IC50: 1.8 ± 0.3 µM
[4]
  IC50: 6.9 ± 0.1 µM
[5]
  IC50: 8.9 ± 0.2 µM

## C=C1CC[C@@H]2[C@](C)(COC(C)=O)[C@H](OC(C)=O)CC[C@@]2(C)[C@@H]1C[C@@H](C1=CCOC1=O)n1cc(-c2ccc(OC)cc2)nn1 [Compound 17, (12S)-4-(4-methoxyphenyl)-1,2,3-triazole-3,19-diacetoxy-14-deoxy-andrographolide]
[1]
  IC50: 2.1 ± 0.1 µM
[2]
  IC50: 1.7 ± 0.5 µM
[3]
  IC50: 0.9 ± 0.1 µM
[4]
  IC50: 5.6 ± 0.2 µM
[5]
  IC50: 4.4 ± 0.9 µM

## C=C1CC[C@@H]2[C@](C)(COC(C)=O)[C@H](OC(C)=O)CC[C@@]2(C)[C@@H]1C[C@H](C1=CCOC1=O)n1cc(-c2ccc(C#N)cc2)nn1 [Compound 14, (12R)-4-benzonitrile-1,2,3-triazole-3,19-diacetoxy-14-deoxy-andrographolide]
[1]
  IC50: 2.5 ± 0.3 µM
[2]
  IC50: 2 ± 0.6 µM
[3]
  IC50: 1.7 ± 0.2 µM
[4]
  IC50: 7.9 ± 0.6 µM
[5]
  IC50: 3.7 ± 0.9 µM

## C=C1CC[C@@H]2[C@](C)(COC(C)=O)[C@H](OC(C)=O)CC[C@@]2(C)[C@@H]1C[C@H](C1=CCOC1=O)n1cc(-c2ccccc2)nn1 [Compound 10, (12R)-4-phenyl-1,2,3-triazole-3,19-diacetoxy-14-deoxy-andrographolide]
[1]
  IC50: 3.8 ± 0.7 µM
[2]
  IC50: 2.2 ± 0.1 µM
[3]
  IC50: 7.7 ± 1 µM
[4]
  IC50: 7.8 ± 0.8 µM
[5]
  IC50: 7.2 ± 0.6 µM

## C=C1CC[C@@H]2[C@](C)(COC(C)=O)[C@H](OC(C)=O)CC[C@@]2(C)[C@@H]1C[C@@H](C1=CCOC1=O)n1cc(Cc2ccccc2)nn1 [Compound 9, (12S)-4-benzyl-1,2,3-triazole-3,19-diacetoxy-14-deoxy andrographolide]
[1]
  IC50: 2 ± 0.1 µM
[2]
  IC50: 1.9 ± 0.6 µM
[3]
  IC50: 2.1 ± 0.3 µM
[4]
  IC50: 8.1 ± 0.1 µM
[5]
  IC50: 3.8 ± 0.9 µM

## C=C1CC[C@@H]2[C@](C)(COC(C)=O)[C@H](OC(C)=O)CC[C@@]2(C)[C@@H]1C[C@H](C1=CCOC1=O)n1cc(-c2ccc(OC(F)(F)F)cc2)nn1 [Compound 18]
[1]
  IC50: 3.5 ± 1.6 µM
[2]
  IC50: 3.7 ± 0.5 µM
[3]
  IC50: 6.6 ± 0.8 µM
[4]
  IC50: 9.5 ± 0.5 µM
[5]
  IC50: 5.1 ± 0.1 µM

## C=C1CC[C@@H]2[C@](C)(COC(C)=O)[C@H](OC(C)=O)CC[C@@]2(C)[C@@H]1C[C@H](C1=CCOC1=O)n1cc(C(C)(C)O)nn1 [Compound 5, (12R)-4-(2-methyl-2-ol)-1,2,3-triazole-3,19-diacetoxy-14-deoxy-andrographolide]
[1]
  IC50: 8.5 ± 1 µM
[2]
  IC50: 8.4 ± 1.1 µM
[3]
  IC50: 7.7 ± 1.3 µM
[4]
  IC50: 25 ± 3 µM
[5]
  IC50: 7.1 ± 2.6 µM

## C=C1CC[C@@H]2[C@](C)(COC(C)=O)[C@H](OC(C)=O)CC[C@@]2(C)[C@@H]1C[C@H](C1=CCOC1=O)n1cc(-c2ccccn2)nn1 [Compound 24, (12R)-4-pyridine-1,2,3-triazole-3,19-diacetoxy-14-deoxy-andrographolide]
[1]
  IC50: 1.8 ± 0.1 µM
[2]
  IC50: 6.7 ± 3.2 µM
[3]
  IC50: 1.3 ± 0.3 µM
[4]
  IC50: 7 ± 0.2 µM
[5]
  IC50: 4.6 ± 1.4 µM

## C=C1CC[C@@H]2[C@](C)(COC(C)=O)[C@H](OC(C)=O)CC[C@@]2(C)[C@@H]1C[C@H](C1=CCOC1=O)n1cc(C(=O)OCC)nn1 [Compound 6, (12R)-4-propriolate-1,2,3-triazole-3,19-diacetoxy-14-deoxy-andrographolide]
[1]
  IC50: 3.4 ± 0.9 µM
[2]
  IC50: 1.2 ± 0.1 µM
[3]
  IC50: 1.3 ± 0.3 µM
[4]
  IC50: 3.8 ± 0.2 µM
[5]
  IC50: 4.4 ± 0.2 µM

## C=C1CC[C@@H]2[C@](C)(COC(C)=O)[C@H](OC(C)=O)CC[C@@]2(C)[C@@H]1C[C@@H](C1=CCOC1=O)n1cc(-c2ccc(C#N)cc2)nn1 [Compound 15, (12S)-4-benzonitrile-1,2,3-triazole-3,19-diacetoxy-14-deoxy-andrographolide]
[1]
  IC50: 3.3 ± 0.9 µM
[2]
  IC50: 1.3 ± 0.1 µM
[3]
  IC50: 1.2 ± 0.2 µM
[4]
  IC50: 5.6 ± 0.2 µM
[5]
  IC50: 6.2 ± 1.2 µM

## C=C1CC[C@@H]2[C@](C)(COC(C)=O)[C@H](OC(C)=O)CC[C@@]2(C)[C@@H]1C[C@@H](C1=CCOC1=O)n1cc(-c2ccncc2)nn1 [Compound 23, (12S)-4-(4-pyridine)-1,2,3-triazole-3,19-diacetoxy-14-deoxy-andrographolide]
[1]
  IC50: 6.3 ± 1.9 µM
[2]
  IC50: 2.8 ± 0.8 µM
[3]
  IC50: 3.3 ± 1 µM
[4]
  IC50: 11 ± 0.2 µM
[5]
  IC50: 4.1 ± 0.9 µM

## C=C1CC[C@@H]2[C@](C)(COC(C)=O)[C@H](OC(C)=O)CC[C@@]2(C)[C@@H]1C/C=C1/C(=O)OC[C@H]1OC(C)=O [Compound 2, 3,14,19-Triacetyl Andrographolide]
[1]
  IC50: 1.9 ± 0.2 µM
[2]
  IC50: 1.4 ± 0.1 µM
[3]
  IC50: 1.2 ± 0.2 µM
[4]
  IC50: 4.9 ± 0.1 µM
[5]
  IC50: 5.6 ± 1.3 µM

## C=C1CC[C@@H]2[C@](C)(COC(C)=O)[C@H](OC(C)=O)CC[C@@]2(C)[C@@H]1C[C@@H](C1=CCOC1=O)n1cc(-c2ccc(OC(F)(F)F)cc2)nn1 [Compound 19]
[1]
  IC50: 3.1 ± 0.8 µM
[2]
  IC50: 4.1 ± 0.2 µM
[3]
  IC50: 7.1 ± 0.1 µM
[4]
  IC50: 7.9 ± 1.5 µM
[5]
  IC50: 6.6 ± 0.9 µM

## C=C1CC[C@@H]2[C@](C)(COC(C)=O)[C@H](OC(C)=O)CC[C@@]2(C)[C@@H]1C[C@@H](C1=CCOC1=O)n1cc(-c2ccc(-c3ccccc3)cc2)nn1 [Compound 21]
[1]
  IC50: 3.5 ± 0.3 µM
[2]
  IC50: 1.2 ± 0.2 µM
[3]
  IC50: 1.3 ± 0.3 µM
[4]
  IC50: 10.4 ± 0.7 µM
[5]
  IC50: 4.4 ± 0.8 µM

## COc1cc([C@@H]2c3cc4c(cc3[C@@H](O[C@@H]3O[C@@H]5CO[C@@H](C)O[C@H]5[C@H](O)[C@H]3O)[C@H]3COC(=O)[C@H]23)OCO4)cc(OC)c1O [Etoposide, reference compound]
[1]
  IC50: 2.8 ± 0.05 µM
[2]
  IC50: 0.65 ± 0.09 µM
[3]
  IC50: 0.82 ± 0.07 µM
[4]
  IC50: 1.8 ± 0.03 µM
[5]
  IC50: 0.76 ± 0.01 µM

## C=C1CC[C@@H]2[C@](C)(COC(C)=O)[C@H](OC(C)=O)CC[C@@]2(C)[C@@H]1C[C@H](C1=CCOC1=O)n1cc(-c2ccc(N)cc2)nn1 [Compound 13, (12R)-4-aniline-1,2,3-triazole-3,19-diacetoxy-14-deoxy-andrographolide]
[1]
  IC50: 6.5 ± 0.4 µM
[2]
  IC50: 4.8 ± 1.3 µM
[3]
  IC50: 6.8 ± 0.9 µM
[4]
  IC50: 26 ± 3 µM
[5]
  IC50: 30 ± 2 µM

## C=C1CC[C@@H]2[C@](C)(COC(C)=O)[C@H](OC(C)=O)CC[C@@]2(C)[C@@H]1C[C@@H](C1=CCOC1=O)n1cc(-c2ccccc2)nn1 [Compound 11, (12S)-4-phenyl-1,2,3-triazole-3,19-diacetoxy-14-deoxy-andrographolide]
[1]
  IC50: 3.4 ± 0.6 µM
[2]
  IC50: 1.9 ± 0.3 µM
[3]
  IC50: 8.2 ± 0.1 µM
[4]
  IC50: 4.2 ± 0.8 µM
[5]
  IC50: 3.3 ± 0.4 µM

## C=C1CC[C@@H]2[C@](C)(COC(C)=O)[C@H](OC(C)=O)CC[C@@]2(C)[C@@H]1C[C@@H](N=[N+]=[N-])C1=CCOC1=O [Compound 3, (12R)-azido-3,19-diacetoxy-14-deoxy-andrographolide]
[1]
  IC50: 1.9 ± 0.1 µM
[2]
  IC50: 7.9 ± 2.1 µM
[3]
  IC50: 1.3 ± 0.1 µM
[4]
  IC50: 6.6 ± 0.1 µM
[5]
  IC50: 3.8 ± 0.7 µM

## C=C1CC[C@@H]2[C@](C)(COC(C)=O)[C@H](OC(C)=O)CC[C@@]2(C)[C@@H]1C[C@H](C1=CCOC1=O)n1cc(CNC(=O)OC(C)(C)C)nn1 [Compound 7, (12R)-4-(tert-butylmethyl carbamate)-1,2,3-triazole-3,19-diacetoxy-14-deoxy-andrographolide]
[1]
  IC50: 4.1 ± 0.3 µM
[2]
  IC50: 1.6 ± 0.4 µM
[3]
  IC50: 3.6 ± 0.9 µM
[4]
  IC50: 18 ± 0.1 µM
[5]
  IC50: 12.9 ± 2.2 µM
